The values below come from PubChem BioAssay AID1745844 (Carcinogenic Potency Database (CPDB), 2022).

What is called TD50 is the 50% point of the dose-response relation for the toxic effect studied.

Calls of active or inactive are those of the source. How the calls were made is not given here.

This data set concerns rodent lifetime carcinogenesis bioassay, tumor incidence TD50. The data set can be described thus: chronic cancer bioassays in animals – CPDB, compiled studies (AID 1745844).

With `[O]=[Bi]`, the carcinogen call is “negative (inactive)” (rat, strain BD, both sexes, in feed, site: hypophysis, lesion: adenoma, dosed 104 weeks, study length 120 weeks) and “negative (inactive)” (rat, strain BD, both sexes, in feed, site: mammary gland, lesion: carcinoma, dosed 104 weeks, study length 120 weeks). Further, for the setting “rat, strain BD, both sexes, in feed, site: mammary gland, lesion: fibroadenoma, dosed 104 weeks, study length 120 weeks”, the TD50 was 150000 mg/kg/day (inactive).

In the case of `Cc1cc(C)c(S(=O)(=O)O)cc1N=Nc1cc(S(=O)(=O)O)c2ccccc2c1O`, the TD50 is 316 mg/kg/day (dog, strain Beagle, females, in feed, site: adrenal gland, lesion: medullary adenoma, dosed 365 weeks, study length 365 weeks); 670 mg/kg/day (dog, strain Beagle, females, in feed, site: any site (literature study), lesion: several types, types named in the paper, dosed 365 weeks, study length 365 weeks); 316 mg/kg/day (inactive) (dog, strain Beagle, females, in feed, site: mammary gland, lesion: adenocarcinoma, dosed 365 weeks, study length 365 weeks); 20300 mg/kg/day (inactive) (mouse, strain C57BL/He, both sexes, in feed, site: any site (literature study), lesion: several types, types named in the paper, dosed 104 weeks, study length 104 weeks); 57100 mg/kg/day (inactive) (mouse, strain C57BL/He, both sexes, in feed, site: liver, lesion: hepatoma, dosed 104 weeks, study length 104 weeks); 12000 mg/kg/day (rat, strain Non-inbred, both sexes, in feed, site: any site (literature study), lesion: several types, types named in the paper, dosed 143 weeks, study length 143 weeks). Moreover, the TD50 (rat, strain Non-inbred, both sexes, in feed, site: liver, lesion: hepatoma, dosed 143 weeks, study length 143 weeks) was 49500 mg/kg/day; the TD50 (rat, strain Osborne-Mendel, both sexes, in feed, site: all sites, lesion: fibrosarcoma, dosed 104 weeks, study length 104 weeks) was 20300 mg/kg/day (inactive); the TD50 (rat, strain Osborne-Mendel, both sexes, in feed, site: liver, lesion: adenoma, dosed 104 weeks, study length 104 weeks) is 59800 mg/kg/day (inactive); the TD50 (rat, strain Wistar, both sexes, in feed, site: abdomen, lesion: malignant lymphoma, dosed 91 weeks, study length 91 weeks) was 6130 mg/kg/day. The carcinogen call is, setting by setting: (mouse, strain C3HeB/Jax, both sexes, in feed, site: any site (literature study), lesion: several types, types named in the paper, dosed 104 weeks, study length 104 weeks) “negative (inactive)”; (mouse, strain C3HeB/Jax, both sexes, in feed, site: liver, lesion: hepatoma, dosed 104 weeks, study length 104 weeks) “negative (inactive)”; (rat, strain Osborne-Mendel, both sexes, in feed, site: any site (literature study), lesion: several types, types named in the paper, dosed 104 weeks, study length 104 weeks) “negative (inactive)”; (rat, strain Sprague-Dawley, both sexes, in feed, site: any site (literature study), lesion: several types, types named in the paper, dosed 104 weeks, study length 104 weeks) “negative (inactive)”.

As to `C[C@](N)(Cc1ccc(O)c(O)c1)C(=O)O`, the carcinogen call runs as follows: (mouse, strain B6C3F1, females, in feed, site: any site (literature study), lesion: several types, types named in the paper, dosed 103 weeks, study length 104 weeks) “negative (inactive)”; (rat, strain Fischer 344, males, in feed, site: any site (literature study), lesion: several types, types named in the paper, dosed 103 weeks, study length 104 weeks) “negative (inactive)”. Also, the TD50 by setting is: (mouse, strain B6C3F1, females, in feed, site: lung, lesion: alveolar/bronchiolar adenoma + alveolar/bronchiolar carcinoma, dosed 103 weeks, study length 104 weeks) 25000 mg/kg/day; (mouse, strain B6C3F1, males, in feed, site: kidney, lesion: tubular-cell adenoma + tubular-cell adenocarcinoma, dosed 103 weeks, study length 104 weeks) 20100 mg/kg/day; (rat, strain Fischer 344, females, in feed, site: any site (literature study), lesion: several types, types named in the paper, dosed 103 weeks, study length 104 weeks) 592 mg/kg/day (inactive).

With `CN(C)CCN(Cc1cccs1)c1ccccn1`, the TD50 (hamster, strain Syrian Golden, males, by gavage, site: liver, lesion: neoplastic nodule, dosed 58 weeks, study length 61 weeks) is 150 mg/kg/day; the TD50 (rat, strain Fischer 344, females, in feed, site: liver, lesion: hepatocellular carcinoma, dosed 110 weeks, study length 133 weeks) is 61.6 mg/kg/day; the TD50 (rat, strain Fischer 344, females, in feed, site: liver, lesion: neoplastic nodule, dosed 110 weeks, study length 133 weeks) was determined as 11.8 mg/kg/day; the TD50 (rat, strain Fischer 344, females, in feed, site: liver, lesion: several types, types named in the paper, dosed 110 weeks, study length 133 weeks) was 7.65 mg/kg/day; the TD50 (rat, strain Fischer 344, males, in feed, site: liver, lesion: cholangiocarcinoma, dosed 110 weeks, study length 133 weeks) was found to be 400 mg/kg/day; the TD50 (rat, strain Fischer 344, males, in feed, site: liver, lesion: hepatocellular carcinoma, solid, dosed 73 weeks, study length 73 weeks) was 26.4 mg/kg/day. The TD50 is 26.4 mg/kg/day (rat, strain Fischer 344, males, in feed, site: liver, lesion: hepatocellular carcinoma, trabecular, dosed 73 weeks, study length 73 weeks); 14.7 mg/kg/day (rat, strain Fischer 344, males, in feed, site: liver, lesion: hepatocellular carcinoma, dosed 73 weeks, study length 73 weeks); 77 mg/kg/day (rat, strain Fischer 344, males, in feed, site: liver, lesion: hepatocellular carcinoma, dosed 110 weeks, study length 133 weeks); 11.1 mg/kg/day (rat, strain Fischer 344, males, in feed, site: liver, lesion: neoplastic nodule, dosed 110 weeks, study length 133 weeks); 7.7 mg/kg/day (rat, strain Fischer 344, males, in feed, site: liver, lesion: several types, types named in the paper, dosed 110 weeks, study length 133 weeks). Also, the carcinogen call runs as follows: (rat, strain Fischer 344, males, in feed, site: liver, lesion: basophil adenoma, dosed 73 weeks, study length 73 weeks) “positive”; (rat, strain Fischer 344, males, in feed, site: liver, lesion: eosinophilic adenoma, dosed 73 weeks, study length 73 weeks) “positive”.

As to `CC(=O)N(C(C)=O)c1cccc2c1Cc1ccccc1-2`, the TD50 was 61.2 mg/kg/day (rat, strain Buffalo, females, in feed, site: ear duct, lesion: squamous-cell carcinoma, dosed 53 weeks, study length 93 weeks); 61.2 mg/kg/day (rat, strain Buffalo, females, in feed, site: liver, lesion: hemangioma, dosed 53 weeks, study length 93 weeks); 19 mg/kg/day (rat, strain Buffalo, females, in feed, site: mammary gland, lesion: adenocarcinoma, dosed 53 weeks, study length 93 weeks); 8.63 mg/kg/day (rat, strain Buffalo, females, in feed, site: pituitary gland, lesion: adenoma, dosed 53 weeks, study length 93 weeks).
